Key:
Assay type in all cases: in vivo, human
[1] = system: diarrhoea-predominant Irritable Bowel Syndrome; test: Inventor's clinical experience in patients with diarrhoea-predominant IBS; details: from clinical experience
Text: Balsalazide is better than mesalazine (5-ASA) in controlling and may inhibit even more powerfully the symptoms of diarrhoea-predominant IBS and associated conditions enumerated below. This is unexpected. It was not expected that balsalazide would be capable of treating diarrhoea-predominant IBS as it is a very different molecule to the conventional 4ASA and 5ASA compounds. […] It is noted that the side chain together with the 5-ASA potentiates inhibition of gas production, cramping, fluid secretion, and mucus production. It appears the large side chain apart from the salicylate component is effective in treating diarrhoea. In addition, in a subgroup of patients the constipation component of IBS may respond to the same treatment.

chronic IBS = test: Example 2: case of a person with chronic IBS (diarrhoea with intervening constipation, diverticulosis) treated with balsalazide
Text: A person complained of greater than 20 years of diarrhoea with intervening constipation, abdominal bloating, pains, flatulence, and nausea with acid reflux. They had undergone several complete medical investigations including stool tests, blood tests, X-ray imaging and colonoscopic examinations, with negative findings apart from the presence of diverticulosis. Diagnosed as chronic IBS they tried increasing fibre intake, controlling stress, and changing their diet, all to no avail. On commencing balsalazide 1.5 g/day and pushing the dose upwards to 4.5 g/d their diarrhoea, pains, flatulence and nausea abated. At the higher dose the constipation also disappeared.

[2] = system: diarrhoea predominant Irritable Bowel Syndrome; test: Example 3: case of a person with diarrhoea predominant Irritable Bowel Syndrome treated with Salofalk granules, then balsalazide
[3] = system: diarrhoea-predominant IBS; test: Example 1: case of a person with severe diarrhoea-predominant IBS treated with balsalazide
Text: A person presented with a 7 year history of worsening diarrhoea (watery 6-12/day), urgency, cramping lower abdominal pain and at times faecal incontinence. There was no clear preceding illness nor antibiotic usage. They underwent numerous investigations, beginning with general practitioners ordering stool cultures, blood tests, ultrasound and CT scan examinations. With the passage of time they noticed that some foods caused worsening of symptoms, and was told by a naturopath that they suffered from a ‘food allergy’. […] They consulted a gastroenterologist and underwent endoscopic small bowel biopsy—where coeliac disease was excluded histologically—and colonoscopy with biopsy and further stool cultures. All tests being non-diagnostic, they were told they had severe, diarrhoea-predominant IBS. They continued on the restricted diet, and was referred for counselling and hypnotherapy. Over the next 6-12 months they progressively lost weight with only modest control of their symptoms by the diet. Within 2 weeks of commencing increasing doses of balsalazide from 1.5 gram to 3 grams per day, the stools progressively formed up, with frequency reducing to 1-2 formed stools per day. […] By 6 weeks of treatment they regained 7 kg in weight.

[4] = balsalazide 1.5 gram to 3 grams per day

Q: How did the “suppression of symptoms of diarrhoea-predominant Irritable Bowel Syndrome compared with conventional 4ASA and 5ASA compounds” value [1] turn out when O=C(O)CCNC(=O)c1ccc(/N=N/c2ccc(O)c(C(=O)O)c2)cc1 [balsalazide, 5[(1E)-[4-[[(2-carboxyethyl)amino]carbonyl]phenyl]azo]-2-hydroxybenzoic acid] was run?
A: much more powerful

Q: What about the durability of improvements (chronic IBS; at 26 weeks) of the same molecule?
A: remain sustained

Q: And the constipation (chronic IBS; at the higher dose (4.5 g/d))?
A: disappeared

Q: What about the “diarrhoea, pains, flatulence and nausea” value (chronic IBS; balsalazide 1.5 g/day pushed upwards to 4.5 g/d) of the same molecule?
A: abated

Q: And the improvement in symptoms ([2]; 750 mg twice daily slowly raised to 1.5 grams twice daily)?
A: dramatic

Q: What about the stool frequency ([2]; 3 grams twice daily) of the same molecule?
A: two

Q: And the symptoms ([2]; 3 grams twice daily)?
A: largely disappeared

Q: And the urgency or flatulence ([2]; 3 grams twice daily)?
A: without any urgency or flatulence

Q: And the durability of improvements ([2]; at four months follow up)?
A: sustained

Q: And the pain [3, 4]?
A: completely abolished

Q: And the urgency [3, 4]?
A: disappaeared

Q: What about the weight regained ([3]; by 6 weeks of treatment) of the same molecule?
A: 7 kg

Q: And the “symptom status at follow up” value ([3]; on balsalazide at 26 weeks)?
A: virtually completely symptom-free

Q: And the stool frequency ([3]; within 2 weeks of increasing doses from 1.5 gram to 3 grams per day, baseline watery 6-12/day)?
A: 1-2 formed stools per day

— US10328088B2, “Use of aminosalicylates in diarrhoea-predominent irritable bowel syndrome” (Salix Pharmaceuticals, Inc., priority 2004, dated 2019)
